Test results as given in patent US9650405B2, “Modified sophorolipids as oil solubilizing agents” (Polytechnic Institute of New York University, priority 2010, dated 2017).
Values belong to the molecule of their own block, whether it stands above or below them.

How the values were obtained:
[1] = Crude oil clearing/displacement activity; conditions: 20 μL of 1 mg/mL solution
Experimental: Oil cleaning assays were performed using Louisiana Crude, Arabian Light Crude, and Prudhoe Bay Crude as the oil phase. In one study, the oil clearing/displacement activity of MSLs were assessed using a crude oil layer on top of sea water in order to simulate oil spill type conditions. Sea water (20 mL) was transferred to plastic Petri dishes and 20 μL of a crude oil type was added on top of the water to create an oil layer. Subsequently, a 20 μL aliquot of MSL solution (1 mg/mL) was added dropwise to the top of the oil layer. The instantaneous formation of an oil clearing zone as well as the diameter of the clearing zone was determined as a function of the dispersant used. […] Furthermore, the oil displacement activity of SL-ethyl ester and SL-butyl ester was slightly higher than Triton-X-100 for Arabian Light crude.

[2] = Crude oil emulsification activity (turbidity at 610 nm); conditions: emulsifier 1 mg/mL
Experimental: Emulsification activity was assessed using Louisiana Crude, Arabian Light Crude, and Prudhoe Bay Crude as the oil phase. A 2 mL solution with emulsifier concentration of 1 mg/mL was prepared. A crude oil (10 mg) was added to the emulsifier aqueous solution, the mixture was vortexed for one minute and the emulsified mixture was allowed to stand for 20 minutes. Emulsification activity was determined by measuring turbidity of the emulsion mixture in a spectrophotometer at 610 nm. The results obtained using SL-ethyl ester, SL-butyl ester, the natural sophorolipid mixture and Triton X-100 as emulsifiers are expressed as D610 and are listed in Table 8. […] Furthermore, a remarkable improvement in emulsification activity was obtained for SL-butyl ester relative to the natural sophorolipid mixture. These comparative results for emulsification of Louisiana Crude, Arabian Light Crude, and Prudhoe Bay Crude oil phase could not be anticipated by one skilled in the art.

[3] = MSL combination lemon oil emulsions, high shear homogenizer; assay type: physicochemical; conditions: 5 weight % surfactant, 1 weight % lemon oil, one week at 25° C.
Experimental: In addition to testing single MSL emulsification through tracking nanoemulsion stability, MSL combinations were investigated. These emulsions were processed with a high shear homogenizer at 13,500 rpm. One example of this MSL combination formulation included 5 weight % surfactant, 1 weight % lemon oil, and 94% deionized water. The pure form of this formulation included 5 weight % SL-hexyl ester. The combination form of this formulation included 2.5 weight % SL-hexyl ester and 2.5 weight % SL-ethyl ester. […] The size of droplets within this emulsion was 2.5 μm. […] The size of droplets within the combination emulsion was 8.4 nm.

[4] = Lemon oil solubilization, sonication, droplet size by dynamic light scattering; assay type: physicochemical
Experimental: MSL's used in this example are SL-hexyl ester (16), SL-octyl ester SL (17), and SL-dodecyl ester (18). To test the MSL capacity for lemon oil solubilization, the volume ratio of water to lemon oil, the concentration of surfactant, and the homogenization time (using a sonicator as the means of homogenization) were varied. Concentration of surfactant is calculated on a w/w basis relative to the mass of water being used. To form emulsions, the MSL or other surfactant is first dissolved in the water, oil is added to the solution, and finally the contents of the water/surfactant+oil system is sonicated. Subsequently, the emulsion is allowed to settle for 24 hours at 25° C. before measurements or visual observations are made.
To evaluate the stability of lemon oil solubilization, photographs of emulsions were recorded daily (after the initial 24 hours). Visual observations consisted of assessing solution clarity, extent of creaming and whether oil separation occurs. After selected time periods measurement of emulsion droplet size was performed by dynamic light scattering, which gives an average droplet size in the solution. […] If the emulsion had creamed (separated into two discreet emulsion layers) the average droplet size for each emulsion layer was determined. The results of this study are listed in Table 6, where the first number represents average droplet size in the top emulsion layer and the second represents the average droplet size in the bottom emulsion layer. […] A better performing emulsifier for this study is defined as functioning to form emulsions with smaller average particle size after the aging period.

[5] = lemon oil/water 1/99, sonication 120 sec, 0.5 wt %, 1 Month
[6] = lemon oil/water 5/95, sonication 60 sec, 0.25 weight-%, 1 Month
[7] = lemon oil/water 5/95, sonication 60 sec, 1 weight-%, 1 Month
[8] = lemon oil/water 5/95, sonication 60 sec, 1 weight-%, 1 Week
[9] = lemon oil/water 5/95, sonication 120 sec, 0.25 weight-%, 1 Month
[10] = lemon oil/water 5/95, sonication 120 sec, 0.5 weight-%, 1 Month
[11] = lemon oil/water 5/95, sonication 120 sec, 0.5 weight-%, 1 Week
[12] = lemon oil/water 5/95, sonication 120 sec, 1 weight-%, 1 Month
[13] = lemon oil/water 5/95, sonication 120 sec, 1 weight-%, 1 Week

Oil displacement activity (diameter of the clearing zone) ([1]; Arabian Light Crude on sea water): 6.7 ± 0.14 cm | Oil displacement activity (diameter of the clearing zone) ([1]; Louisiana Crude on sea water): 8.7 ± 0.35 cm | Oil displacement activity (diameter of the clearing zone) ([1]; Prudhoe Bay Crude on sea water): 7.5 cm
Compound: CCCCOC(=O)CCCCCCCC=CCCCCCCC(C)OC1OC(CO)C(O)C(O)C1OC1OC(CO)C(O)C(O)C1O (centres unmarked) [Compound 8, SL-Butyl Ester]
Emulsification activity (D610) ([2]; Arabian Crude): 1.77 | Emulsification activity (D610) ([2]; Louisiana Crude): 1.50 | Emulsification activity (D610) ([2]; Prudhoe Crude): 1.58

size of droplets within the emulsion ([3]; 94% deionized water): 2.5 μm | appearance of the emulsion [3]: completely opaque | average droplet sizes after one month ([4]; lemon oil emulsions, after one month): below 1 μm | Emulsion Droplet Size ([4]; lemon oil/water 1/99, sonication 60 sec, 0.25 weight-%, 1 Month): 138 nm | Emulsion Droplet Size ([4]; lemon oil/water 1/99, sonication 60 sec, 0.25 weight-%, 1 Week): 200 nm | Emulsion Droplet Size ([4]; lemon oil/water 1/99, sonication 60 sec, 1 weight-%, 1 Month): 52 nm | Emulsion Droplet Size ([4]; lemon oil/water 1/99, sonication 60 sec, 1 weight-%, 1 Week): 22 nm | Emulsion Droplet Size ([4]; lemon oil/water 1/99, sonication 120 sec, 0.25 weight-%, 1 Month): 105 nm | Emulsion Droplet Size ([4]; lemon oil/water 1/99, sonication 120 sec, 0.25 weight-%, 1 week): 149 nm | Emulsion Droplet Size, bottom emulsion layer [4, 5]: 82 nm | Emulsion Droplet Size, top emulsion layer [4, 5]: 287 nm | Emulsion Droplet Size ([4]; lemon oil/water 1/99, sonication 120 sec, 0.5 wt %, 1 Week): 255 nm | Emulsion Droplet Size ([4]; lemon oil/water 1/99, sonication 120 sec, 1 weight-%, 1 Month): 26 nm | Emulsion Droplet Size ([4]; lemon oil/water 1/99, sonication 120 sec, 1 weight-%, 1 Week): 20 nm | Emulsion Droplet Size, bottom emulsion layer [4, 6]: 177 nm | Emulsion Droplet Size, top emulsion layer [4, 6]: 506 nm | Emulsion Droplet Size ([4]; lemon oil/water 5/95, sonication 60 sec, 0.25 weight-%, 1 week): 330 nm | Emulsion Droplet Size, bottom emulsion layer [4, 7]: 32 nm | Emulsion Droplet Size, top emulsion layer [4, 7]: 471 nm | Emulsion Droplet Size, bottom emulsion layer [4, 8]: 112 nm | Emulsion Droplet Size, top emulsion layer [4, 8]: 313 nm | Emulsion Droplet Size, bottom emulsion layer [4, 9]: 166 nm | Emulsion Droplet Size, top emulsion layer [4, 9]: 450 nm | Emulsion Droplet Size ([4]; lemon oil/water 5/95, sonication 120 sec, 0.25 weight-%, 1 week): 325 nm | Emulsion Droplet Size, bottom emulsion layer [4, 10]: 120 nm | Emulsion Droplet Size, top emulsion layer [4, 10]: 505 nm | Emulsion Droplet Size, bottom emulsion layer [4, 11]: 29 nm | Emulsion Droplet Size, top emulsion layer [4, 11]: 320 nm | Emulsion Droplet Size, bottom emulsion layer [4, 12]: 25 nm | Emulsion Droplet Size, top emulsion layer [4, 12]: 518 nm | Emulsion Droplet Size, bottom emulsion layer [4, 13]: 246 nm | Emulsion Droplet Size, top emulsion layer [4, 13]: 336 nm
Compound: CCCCCCOC(=O)CCCCCCCC=CCCCCCCC(C)OC1OC(CO)C(O)C(O)C1OC1OC(CO)C(O)C(O)C1O (centres unmarked) [Compound 16, SL-Hexyl Ester]
